Assay results published in US11814367B2, “Inhibitors of glycogen synthase 1 (GYS1) and methods of use thereof” (Maze Therapeutics, Inc., priority 2021, dated 2023).

Legend:
[1] = target: hGYS1 enzyme (recombinant hGYS1/GN1 protein) (Homo sapiens (Human), UniProt P13807); assay: GYS1 coupled enzyme assay (PK/LDH); format: biochemical; conditions: hGYS1/GN1 50 nM, UDP-Glucose 0.8 mM, G6P 1 mM; geometric mean of at least 2 runs
[2] = tested on: hGYS1 enzyme / glycogen synthesis in HeLa cells; assay: GYS1 cell based assay (glycogen synthesis, Glucose-glo); parameters: species or system human; conditions: 24 h incubation, 20 mM glucose, geometric mean of at least 2 runs
Source text: The GYS1 cell based assay is a bioluminescent assay that quantifies the glucose resulting from glycogen digestion; the quantified glucose is an indirect measure of GYS1 glycogen synthesis. Newly synthesized glycogen is digested using Glucoamylase; the resulting glucose is quantified by using the Glucose-glo assay kit from Promega. Glucose-glo works by coupling glucose oxidation and NADH production with a bioluminescent system that is activated with NADH. Glucose is oxidized by Glucose dehydrogenase and the reaction reduces NAD+ to NADH; NADH activates Reductase which reduces a pro-luciferin Reductase Substrate to luciferin. Luciferin is detected in a luciferase reaction using Ultra-Glo rLuciferase and ATP, and the luminesce produced is proportional to the glucose in the sample. The luminescence is measured as a single point read in a plate reader.
Compounds that inhibit the hGYS1 enzyme and, subsequently, the glycogen synthesis in cells, were tested using assay ready plates (white, clear bottom 384 well plates) in a final DMSO reaction volume of 1% DMSO. Compounds in the assay ready plates were mixed with media with no additives, except for 20 mM glucose prior to cell addition. HeLa cells were starved in media with no additives, except for 1× Glutamax for 24 h. Starved HeLa cells were plated, in a 1:1 ratio to the media in the assay ready plate and incubated for 24 h at 37° C. and 5% C02. Cells were washed in 1×PBS buffer and lysed in lysis buffer containing 50% 1×PBS and 25% 0.3 N HCl of the final volume in the well or reaction volume; cells were incubated with lysis buffer for 10 minutes and quenched with the remaining 25% of the reaction volume that consisted of 450 mM Tris pH 8.0. Lysates were mixed in a 1:1 ratio with Glucoamylase in 100 mM Sodium Acetate buffer, pH 5.3; the mixture was incubated for 1 h at 37° C. The digested lysate was mixed in a 1:1 ratio with Glucose-glo detection mixture as per vendor recommendations (Luciferase detection buffer, Reductase, Reductase substrate, Glucose dehydrogenase, and NAD) in read-out plates (solid white 384-well plates) and incubated for 1 h at RT. The plates were read using a plate reader with luminescence capabilities. Each compound concentration Relative Luminescence Unit (RLU) was averaged and normalized to the average RLU of the positive and negative controls to obtain a percentage inhibition. The normalized data vs. concentration was plotted; to determine the half-maximal concentration (IC50), the Levenberg-Marquardt algorithm was used to fit a Hill equation to the dose response data.
The results are shown in Table 3 below, which reports the IC50 of each compound. Unless otherwise specified, IC50 values are reported as the geometric mean of at least 2 assay runs on separate days. As shown in the table below, the compounds of the present invention are potent inhibitors of human GYS1. Unless otherwise specified, IC50 values are reported as the geometric mean of at least two assay runs on separate days. Each run represents the average of a technical replicate, where each compound was assayed twice in the same plate. A superscript “#” symbol in Table 3 indicates results from a single assay run.

Sequence of hGYS1 enzyme (recombinant hGYS1/GN1 protein) (P13807 whole entry): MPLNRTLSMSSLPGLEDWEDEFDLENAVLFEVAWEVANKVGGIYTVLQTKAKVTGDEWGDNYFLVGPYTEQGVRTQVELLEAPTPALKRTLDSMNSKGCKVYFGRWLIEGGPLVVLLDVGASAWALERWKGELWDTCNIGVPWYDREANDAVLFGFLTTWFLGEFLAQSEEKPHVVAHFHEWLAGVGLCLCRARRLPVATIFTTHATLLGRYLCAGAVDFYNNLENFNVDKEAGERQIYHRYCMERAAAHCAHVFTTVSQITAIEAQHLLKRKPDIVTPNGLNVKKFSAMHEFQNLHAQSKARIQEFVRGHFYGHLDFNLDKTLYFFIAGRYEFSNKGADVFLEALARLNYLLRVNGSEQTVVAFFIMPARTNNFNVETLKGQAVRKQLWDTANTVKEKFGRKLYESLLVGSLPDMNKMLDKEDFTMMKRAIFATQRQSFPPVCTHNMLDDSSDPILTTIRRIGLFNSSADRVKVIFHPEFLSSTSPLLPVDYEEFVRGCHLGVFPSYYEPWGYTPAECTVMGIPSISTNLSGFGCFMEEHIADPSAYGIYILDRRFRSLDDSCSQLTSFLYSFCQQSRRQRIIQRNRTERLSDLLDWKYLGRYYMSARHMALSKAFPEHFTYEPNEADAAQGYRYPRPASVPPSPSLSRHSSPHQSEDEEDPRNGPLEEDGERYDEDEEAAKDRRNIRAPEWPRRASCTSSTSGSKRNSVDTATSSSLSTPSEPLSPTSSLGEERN
Sequence of hGYS1 enzyme (recombinant hGYS1/GN1 protein) (P46976 whole entry partner): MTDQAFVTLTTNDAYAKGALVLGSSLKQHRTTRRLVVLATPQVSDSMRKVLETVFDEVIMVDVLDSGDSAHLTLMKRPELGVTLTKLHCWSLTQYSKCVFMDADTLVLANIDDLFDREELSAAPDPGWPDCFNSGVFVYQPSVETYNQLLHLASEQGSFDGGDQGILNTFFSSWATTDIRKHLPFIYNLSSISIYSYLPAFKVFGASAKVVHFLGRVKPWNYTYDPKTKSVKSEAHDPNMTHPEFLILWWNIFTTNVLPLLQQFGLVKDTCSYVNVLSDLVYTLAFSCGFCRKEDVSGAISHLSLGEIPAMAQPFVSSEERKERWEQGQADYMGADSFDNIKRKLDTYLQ

CC(C)(C)OC(=O)n1c(CC(=O)N2C[C@H](F)C[C@H]2C(=O)N[C@@H](c2ccccc2)c2ccc(C3(C)CC3)c(F)n2)cc2ccccc21 [Compound 601, tert-butyl 2-{2-[(2S,4R)-4-fluoro-2-{[(S)-[6-fluoro-5-(1-methylcyclopropyl)pyridin-2-yl](phenyl)methyl]carbamoyl}pyrrolidin-1-yl]-2-oxoethyl}-1H-indole-1-carboxylate]
IC50 [1]: 34 nM | IC50 ([2]; Homo sapiens, HeLa, 24 h): 710 nM

CC(C)c1ccc([C@@H](NC(=O)[C@@H]2C[C@@H](F)CN2C(=O)Cc2c[nH]c(=O)cn2)c2ccccc2)nc1F [Compound 802, (2S,4R)-4-fluoro-N-[(S)-[6-fluoro-5-(propan-2-yl)pyridin-2-yl](phenyl)methyl]-1-[2-(5-oxo-4,5-dihydropyrazin-2-yl)acetyl]pyrrolidine-2-carboxamide]
IC50 [1]: 9 nM | IC50 ([2]; Homo sapiens, HeLa, 24 h): 370 nM

CC(=O)NCc1cccc([C@H](NC(=O)[C@@H]2C[C@@H](F)CN2C(=O)Cc2cnn[nH]2)c2ccc(C(C)C)c(F)n2)c1 [Compound 655, (2S,4R)-N-[(S)-[3-(acetamidomethyl)phenyl][6-fluoro-5-(propan-2-yl)pyridin-2-yl]methyl]-4-fluoro-1-[2-(1H-1,2,3-triazol-5-yl)acetyl]pyrrolidine-2-carboxamide]
IC50 [1]: 1010 nM | IC50 ([2]; Homo sapiens, HeLa, 24 h): > 30000 nM

Cn1ncc(C(F)F)c1CC(=O)N1C[C@H](F)C[C@H]1C(=O)N[C@@H](c1ccccc1)c1ccc(C2CC2)c(F)n1 [Compound 754, (2S,4R)-N-[(S)-(5-cyclopropyl-6-fluoropyridin-2-yl)(phenyl)methyl]-1-{2-[4-(difluoromethyl)-1-methyl-1H-pyrazol-5-yl]acetyl}-4-fluoropyrrolidine-2-carboxamide]
IC50 [1]: 27 nM | IC50 ([2]; Homo sapiens, HeLa, 24 h): 420 nM

CC(C)c1ccc([C@@H](NC(=O)[C@@H]2C[C@@H](F)CN2C(=O)Cn2nncc2N2CC(F)(F)C2)c2ccccc2)nc1 [Compound 714, (2S,4R)-1-{2-[5-(3,3-difluoroazetidin-1-yl)-1H-1,2,3-triazol-1-yl]acetyl}-4-fluoro-N-[(S)-phenyl[5-(propan-2-yl)pyridin-2-yl]methyl]pyrrolidine-2-carboxamide]
IC50 [1]: 45 nM | IC50 ([2]; Homo sapiens, HeLa, 24 h): 1390 nM

Cc1cc(C(NC(=O)[C@@H]2C[C@@H](F)CN2C(=O)CNC(=O)N(C)C)c2cccnc2N)ccc1C(C)C (single isomer, unassigned) [Compound 622, (2S,4R)-N-[(R) or (S)-(2-aminopyridin-3-yl)[3-methyl-4-(propan-2-yl)phenyl]methyl]-1-{2-[(dimethylcarbamoyl)amino]acetyl}-4-fluoropyrrolidine-2-carboxamide]
IC50 [1]: 443 nM | IC50 ([2]; Homo sapiens, HeLa, 24 h): > 10000 nM

O=C(NC(c1ccc(C2CC2)c(F)n1)c1ccccc1F)[C@@H]1C[C@@H](F)CN1C(=O)Cn1nnnc1C(F)F (single isomer, unassigned) [Compound 657, (2S,4R)-N-[(S) or (R)-(5-cyclopropyl-6-fluoropyridin-2-yl)(2-fluorophenyl)methyl]-1-{2-[5-(difluoromethyl)-1H-1,2,3,4-tetrazol-1-yl]acetyl}-4-fluoropyrrolidine-2-carboxamide]
IC50 [1]: 127 nM | IC50 ([2]; Homo sapiens, HeLa, 24 h): 1500 nM

CCN(CC)c1cnnn1CC(=O)N1C[C@H](F)C[C@H]1C(=O)N[C@@H](c1ccccc1)c1ccc(C2CC2)c(F)n1 [Compound 748, (2S,4R)-N-[(S)-(5-cyclopropyl-6-fluoropyridin-2-yl)(phenyl)methyl]-1-{2-[5-(diethylamino)-1H-1,2,3-triazol-1-yl]acetyl}-4-fluoropyrrolidine-2-carboxamide]
IC50 [1]: 15 nM | IC50 ([2]; Homo sapiens, HeLa, 24 h): 530 nM

Cc1ncccc1C(NC(=O)[C@@H]1C[C@@H](F)CN1C(=O)Cc1cnn[nH]1)c1ccc(C2(C)CC2)c(F)c1 (single isomer, unassigned) [Compound 627, (2S,4R)-4-fluoro-N-[(R) or (S)-[3-fluoro-4-(1-methylcyclopropyl)phenyl](2-methylpyridin-3-yl)methyl]-1-[2-(1H-1,2,3-triazol-5-yl)acetyl]pyrrolidine-2-carboxamide]
IC50 [1]: 1620 nM | IC50 ([2]; Homo sapiens, HeLa, 24 h): 29500 nM

CC(C)c1ccc([C@@H](NC(=O)[C@@H]2C[C@@H](F)CN2C(=O)Cc2noc(=O)n2C)c2ccccc2)nc1 [Compound 267, (2S,4R)-4-fluoro-1-[2-(4-methyl-5-oxo-4,5-dihydro-1,2,4-oxadiazol-3-yl)acetyl]-N-[(S)-phenyl[5-(propan-2-yl)pyridin-2-yl]methyl]pyrrolidine-2-carboxamide]
IC50 [1]: 464 nM | IC50 ([2]; Homo sapiens, HeLa, 24 h): 4300 nM

CC(C)c1ccc(C(NC(=O)[C@@H]2C[C@@H](F)CN2C(=O)Cc2cnn[nH]2)c2ncc3ccccn23)nc1F (single isomer, unassigned) [Compound 628, (2S,4R)-4-fluoro-N-[(R) or (S)-[6-fluoro-5-(propan-2-yl)pyridin-2-yl]({imidazo[1,5-a]pyridin-3-yl})methyl]-1-[2-(1H-1,2,3-triazol-5-yl)acetyl]pyrrolidine-2-carboxamide]
IC50 [1]: 2780 nM | IC50 ([2]; Homo sapiens, HeLa, 24 h): > 30000 nM

Cc1cc(C(NC(=O)[C@@H]2C[C@@H](F)CN2C(=O)Cc2cnn[nH]2)c2ccccc2)cc(F)c1C(C)C (single isomer, unassigned) [Compound 678, (2S,4R)-4-fluoro-N-[(R) or (S)-[3-fluoro-5-methyl-4-(propan-2-yl)phenyl](phenyl)methyl]-1-[2-(1H-1,2,3-triazol-5-yl)acetyl]pyrrolidine-2-carboxamide]
IC50 [1]: 1060 nM | IC50 [2]: > 10000 nM

CC1(c2ccc([C@@H](NC(=O)[C@@H]3C[C@@H](F)CN3C(=O)Cc3cnn[nH]3)c3cccnc3)cc2F)CC1 [Compound 559, (2S,4R)-4-fluoro-N-[(R)-[3-fluoro-4-(1-methylcyclopropyl)phenyl](pyridin-3-yl)methyl]-1-[2-(1H-1,2,3-triazol-5-yl)acetyl]pyrrolidine-2-carboxamide]
IC50 [1]: 1580 nM | IC50 ([2]; Homo sapiens, HeLa, 24 h): > 22100 nM

CC(C)c1ccc([C@@H](NC(=O)[C@@H]2C[C@@H](F)CN2C(=O)Cc2noc(=O)[nH]2)c2ccccc2)nc1 [Compound 286, (2S,4R)-4-fluoro-1-[2-(5-oxo-4,5-dihydro-1,2,4-oxadiazol-3-yl)acetyl]-N-[(S)-phenyl[5-(propan-2-yl)pyridin-2-yl]methyl]pyrrolidine-2-carboxamide]
IC50 [1]: 147 nM | IC50 ([2]; Homo sapiens, HeLa, 24 h): > 30000 nM

O=C(NC(c1ccccc1)c1ccc(C2CCC2)cn1)[C@@H]1C[C@@H](F)CN1C(=O)Cc1cnn[nH]1 (single isomer, unassigned) [Compound 610, (2S,4R)-N-[(S) or (R)-(5-cyclobutylpyridin-2-yl)(phenyl)methyl]-4-fluoro-1-[2-(1H-1,2,3-triazol-5-yl)acetyl]pyrrolidine-2-carboxamide]
IC50 [1]: 107 nM | IC50 ([2]; Homo sapiens, HeLa, 24 h): 1010 nM

O=C(N[C@@H](c1ccccc1)c1ccc(C2CC2)c(F)n1)[C@@H]1C[C@@H](F)CN1C(=O)Cn1ccc(C(F)(F)F)n1 [Compound 730, (2S,4R)-N-[(S)-(5-cyclopropyl-6-fluoropyridin-2-yl)(phenyl)methyl]-4-fluoro-1-{2-[3-(trifluoromethyl)-1H-pyrazol-1-yl]acetyl}pyrrolidine-2-carboxamide]
IC50 [1]: 37 nM | IC50 ([2]; Homo sapiens, HeLa, 24 h): 760 nM

O=C(N[C@@H](c1ccccc1)c1ccc(C2CC2)c(F)n1)[C@@H]1C[C@@H](F)CN1C(=O)CNC(=O)N(Cc1ccccc1)C(F)(F)F [Compound 744, (2S,4R)-1-(2-{[benzyl(trifluoromethyl)carbamoyl]amino}acetyl)-N-[(S)-(5-cyclopropyl-6-fluoropyridin-2-yl)(phenyl)methyl]-4-fluoropyrrolidine-2-carboxamide]
IC50 [1]: 46 nM | IC50 ([2]; Homo sapiens, HeLa, 24 h): 1520 nM

CCn1cc(C)cc(CC(=O)N2C[C@H](F)C[C@H]2C(=O)N[C@@H](c2ccccc2)c2ccc(C3CC(F)(F)C3)c(F)n2)c1=O [Compound 525, (2S,4R)-N-[(S)-[5-(3,3-difluorocyclobutyl)-6-fluoropyridin-2-yl](phenyl)methyl]-1-[2-(1-ethyl-5-methyl-2-oxo-1,2-dihydropyrdin-3-yl)acetyl]-4-fluoropyrrolidine-2-carboxamide]
IC50 [1]: 4 nM | IC50 ([2]; Homo sapiens, HeLa, 24 h): 50 nM
